Data from patent publication US20170152258A9, “Substituted Pyridopyrazines as Syk Inhibitors” (HUTCHISON MEDIPHARMA LIMITED, priority 2012, published 2017).

Biological target: Syk kinase (Homo sapiens, UniProt P43405)
Assay: SYK Enzymatic Assay (Z-LYTE Tyr 2 peptide)
Format: biochemical
Conditions: 8 concentrations 1 μM down to 0.0003 μM
Method: Syk kinase assay are performed in vitro using Kit-Tyr 2 Peptide (Invitrogen, Cat. No. PV3191) and in a 384-well assay plate. […] The 384-well assay plate (Corning, Cat. No. 3575) is mixed and incubated at room temperature for 1 hour. 10 μL of the Development Solution (prepared by diluting Development Reagent A (Cat. No. PV3297) to 1/32 with Development Buffer (Cat. No. PV3127)) is then added to each well, mixed and incubated at room temperature for another 1 hour. The reactions are then stopped by adding 10 μL of the Stop Reagent (Invitrogen, Cat. No. PV3094), and the plate is read with Wallac 1420 VICTOR^3 Multilabel Counter (PerkinElmer™) at 445 nm and 520 nm fluorescence. All compounds are tested at 8 concentrations (1 μM down to 0.0003 μM) using a 1:3 serial dilution scheme.

| SMILES | IC50 [nM] |
| --- | --- |
| NC(=O)N1CCO[C@H](COc2nc(-c3ccc4[nH]ncc4c3)cc3nccnc23)C1 [Cmpd 242] | 111 |
| OC1CCC(Oc2nc(-c3ccc(N4CCOCC4)cc3)cc3nccnc23)CC1 (stereo not shown) [Compound 1, 4-(7-(4-morpholinophenyl)pyrido[4,3-b]pyrazin-5-yloxy)cyclohexanol] | 270 |
| c1cnc2c(OCCc3cn[nH]c3)nc(-c3ccc(N4CCOCC4)cc3)cc2n1 [Compound 2, 4-(4-(5-(2-(1H-pyrazol-4-yl)ethoxy)pyrido[3,4-b]pyrazin-7-yl)phenyl)morpholine] | 552 |
| NC(=O)c1ccc(Oc2nc(-c3ccc(N4CCOCC4)cc3)cc3nccnc23)cc1 [Compound 3, 4-(7-(4-morpholinophenyl)pyrido[4,3-b]pyrazin-5-yloxy)benzamide] | 459 |
| O=C1CCC(COc2nc(-c3ccc(N4CCOCC4)cc3)cc3nccnc23)CN1 (stereo not shown) [Compound 4, 5-(((7-(4-morpholinophenyl)pyrido[3,4-b]pyrazin-5-yl)oxy)methyl)piperidin-2-one] | 160 |
| CN1CCN(c2ccc(-c3cc4nccnc4c(OCC4CCC(=O)NC4)n3)cc2)CC1 (stereo not shown) [Compound 5] | 172 |
| CS(=O)(=O)N1CCO[C@H](COc2nc(-c3cnn(C4CCOCC4)c3)cc3nccnc23)C1 [Compound 42] | 139 |
| CN(C)c1ccc(-c2cc3nccnc3c(O[C@H]3CCOC3)n2)cc1 [Compound 106] | 130 |
| CN(C)c1ccc(-c2cc3nccnc3c(OC3CCOCC3)n2)cc1 [Compound 107] | 919 |
| COc1ccc(-c2cc3nccnc3c(OC[C@@H]3CN(C(C)=O)CCO3)n2)cc1OC [Compound 132] | 109 |
| COc1cc(-c2cc3nccnc3c(OC[C@@H]3CN(C(C)=O)CCO3)n2)ccc1OC(C)C [Compound 147] | 115 |
| CC(=O)N1CCO[C@H](COc2nc(-c3ccc(C4CCNCC4)cc3)cc3nccnc23)C1 [Compound 162] | 151 |
| CS(=O)(=O)N1CCC(c2ccc(-c3cc4nccnc4c(OCC4CCCCO4)n3)cc2)CC1 (stereo not shown) [Compound 169] | 272 |
| CS(=O)(=O)N1CCC(c2ccc(-c3cc4nccnc4c(OCC4CCCO4)n3)cc2)CC1 (stereo not shown) [Compound 170] | 182 |
| CC(=O)N1CCO[C@H](COc2nc(-c3ccc4c(c3)CC(=O)N4C)cc3nccnc23)C1 [Compound 171] | 458 |
| CC(=O)N1CCO[C@H](COc2nc(-c3cnc(N(C)C)c(C)c3)cc3nccnc23)C1 [Compound 174] | 816 |
| CS(=O)(=O)N1CCN(c2ccc(-c3cc4nccnc4c(O[C@@H]4CCCOC4)n3)cc2)CC1 [Compound 179] | 190 |
| CS(=O)(=O)N1CCC(c2ccc(-c3cc4nccnc4c(O[C@@H]4CCCOC4)n3)cc2)CC1 [Compound 180] | 177 |
| CC(=O)N1CCO[C@H](COc2nc(-c3ccc(N4CCNCC4)c(C)c3)cc3nccnc23)C1 [Compound 182] | 110 |
| CC(=O)N1CCC(c2ccc(-c3cc4nccnc4c(O[C@@H]4CCCOC4)n3)cc2)CC1 [Compound 191] | 115 |
| Clc1cc(-c2cc3nccnc3c(O[C@@H]3CCOC3)n2)ccc1N1CCOCC1 [Compound 194] | 136 |
| CNC(=O)N1CCO[C@H](COc2nc(-c3ccc4[nH]ncc4c3)cc3nccnc23)C1 [Compound 204] | 126 |
| c1cnc2c(O[C@@H]3CCNC3)nc(-c3ccc(N4CCOCC4)cc3)cc2n1 [Compound 243] | 300 |
| N#CC1(c2ccc(-c3cc4nccnc4c(OC[C@@H]4CN(C(N)=O)CCO4)n3)cc2)CC1 [Compound 275] | 76 |
| CC(=O)N1CCO[C@H](COc2nc(-c3ccc(C4(C#N)CC4)cc3)cc3nccnc23)C1 [Compound 276] | 112 |
| CC(=O)N1CCO[C@H](COc2nc(-c3ccc(C(C)(CO)CO)cc3)cc3nccnc23)C1 [Compound 278] | 175 |
| CC(=O)N1CCO[C@H](COc2nc(-c3ccc(C(O)C(C)(C)C)cc3)cc3nccnc23)C1 (stereo partly shown) [Compound 285] | 258 |

Next, values leading:

| IC50 [nM] | SMILES |
| --- | --- |
| 18 | CS(=O)(=O)N1CCO[C@H](COc2nc(-c3ccc(C4CCNCC4)cc3)cc3nccnc23)C1 [Compound 10, (S)-4-(methylsulfonyl)-2-(((7-(4-(piperidin-4-yl)phenyl)pyrido[3,4-b]pyrazin-5-yl)oxy)methyl)morpholine] |
| 227 | CS(=O)(=O)N1CCO[C@H](COc2nc(-c3ccc(OC(F)F)cc3)cc3nccnc23)C1 [Compound 34] |
| 131 | COc1ccc(-c2cc3nccnc3c(OC[C@@H]3CN(S(C)(=O)=O)CCO3)n2)cc1F [Compound 35] |
| 40 | CS(=O)(=O)N1CCO[C@H](COc2nc(-c3ccc(N4CCCC4)cc3)cc3nccnc23)C1 [Compound 37] |
| 338 | CS(=O)(=O)N1CCO[C@H](COc2nc(-c3ccc(Cl)cc3)cc3nccnc23)C1 [Compound 40] |
| 138 | Cc1ccc(-c2cc3nccnc3c(OC[C@@H]3CN(S(C)(=O)=O)CCO3)n2)cc1 [Compound 41] |
| 324 | CS(=O)(=O)N1CCO[C@H](COc2nc(-c3ccc(F)cc3)cc3nccnc23)C1 [Compound 44] |
| 846 | CS(=O)(=O)N1CCO[C@H](COc2nc(-c3ccc(C#N)cc3)cc3nccnc23)C1 [Compound 45] |
| 192 | Cn1cc(-c2cc3nccnc3c(OC[C@@H]3CN(S(C)(=O)=O)CCO3)n2)cn1 [Compound 46] |
| 122 | CNc1ccc(-c2cc3nccnc3c(OC[C@@H]3CN(C(C)=O)CCO3)n2)cc1 [Compound 47] |
| 121 | CN(C)S(=O)(=O)N1CCO[C@H](COc2nc(-c3ccc(N4CCOCC4)cc3)cc3nccnc23)C1 [Compound 56] |
| 231 | CN(C)c1ccc(-c2cc3nccnc3c(OC[C@@H]3CN(C(=O)CCc4cccnc4)CCO3)n2)cc1 [Compound 79] |
| 107 | CN(C)c1ccc(-c2cc3nccnc3c(OC[C@@H]3CN(C(=O)Cc4cccnc4)CCO3)n2)cc1 [Compound 80] |
| 166 | CN(C)c1ccc(-c2cc3nccnc3c(OC[C@@H]3CN(C(=O)CCCC#N)CCO3)n2)cc1 [Compound 81] |
| 113 | CC(C)S(=O)(=O)N1CCO[C@H](COc2nc(-c3ccc(N4CCOCC4)cc3)cc3nccnc23)C1 [Compound 82] |
| 283 | CN(C)c1ccc(-c2cc3nccnc3c(OC[C@@H]3CN(C(=O)CCn4ccnc4)CCO3)n2)cc1 [Compound 85] |
| 474 | CN(C)c1ccc(-c2cc3nccnc3c(OC[C@@H]3CN(S(=O)(=O)C4CCCCC4)CCO3)n2)cc1 [Compound 91] |
| 808 | CN(C)c1ccc(-c2cc3nccnc3c(OC[C@@H]3CN(S(=O)(=O)Cc4cccc(F)c4)CCO3)n2)cc1 [Compound 93] |
| 134 | CN(C)c1ccc(-c2cc3nccnc3c(OC[C@@H]3CN(C(=O)C4CC4(F)F)CCO3)n2)cc1 (stereo partly shown) [Compound 96] |
| 144 | CN(C)c1ccc(-c2cc3nccnc3c(OC[C@@H]3CN(C(=O)C4(C#N)CC4)CCO3)n2)cc1 [Compound 97] |

| IC50 [nM] | SMILES |
| --- | --- |
| 122 | COCCNc1ccc(-c2cc3nccnc3c(OC[C@@H]3CN(C(C)=O)CCO3)n2)cc1 [Compound 114] |
| 477 | CNS(=O)(=O)CCN1CCO[C@H](COc2nc(-c3ccc(N(C)C)cc3)cc3nccnc23)C1 [Compound 128] |
| 454 | CN(C)CCOc1cccc(-c2cc3nccnc3c(OC[C@@H]3CN(S(C)(=O)=O)CCO3)n2)c1 [Compound 130] |
| 102 | CC(=O)N1CCO[C@H](COc2nc(-c3ccc(C(C)C)cc3)cc3nccnc23)C1 [Compound 160] |
| 405 | CN(C)c1ccc(-c2cc3nccnc3c(OCC3CCCCO3)n2)cc1 (stereo not shown) [Compound 167] |
| 211 | CN(C)c1ccc(-c2cc3nccnc3c(OCC3CCCO3)n2)cc1 (stereo not shown) [Compound 168] |
| 109 | CC(C)c1ccc(-c2cc3nccnc3c(OC[C@@H]3CN(S(N)(=O)=O)CCO3)n2)cc1 [Compound 187] |
| 386 | CC(=O)N1CCOC(C(C)Oc2nc(-c3ccc(N(C)C)cc3)cc3nccnc23)C1 (stereo not shown) [Compound 233] |
| 193 | CC(Oc1nc(-c2ccc(N(C)C)cc2)cc2nccnc12)C1CN(C(N)=O)CCO1 (stereo not shown) [Compound 234] |
| 212 | CNC(=O)N1CCOC(C(C)Oc2nc(-c3ccc(N(C)C)cc3)cc3nccnc23)C1 (stereo not shown) [Compound 235] |
| 109 | CC(Oc1nc(-c2ccc(N(C)C)cc2)cc2nccnc12)C1CN(S(C)(=O)=O)CCO1 (stereo not shown) [Compound 236] |
| 275 | CC(Oc1nc(-c2ccc(N(C)C)cc2)cc2nccnc12)C1CN(C(N)=O)CCO1 (stereo not shown) [Compound 238] |
| 451 | CNC(=O)N1CCOC(C(C)Oc2nc(-c3ccc(N(C)C)cc3)cc3nccnc23)C1 (stereo not shown) [Compound 239] |
| 262 | CC(Oc1nc(-c2ccc(N(C)C)cc2)cc2nccnc12)C1CN(S(C)(=O)=O)CCO1 (stereo not shown) [Compound 240] |
| 136 | CC(C)(N)c1ccc(-c2cc3nccnc3c(OC[C@@H]3CN(S(C)(=O)=O)CCO3)n2)cc1 [Compound 244] |
| 449 | CC(=O)N1CCO[C@H](COc2nc(-c3ccc(C(C)(C)N)cc3)cc3nccnc23)C1 [Compound 245] |
| 741 | CC(=O)N1CCO[C@H](COc2nc(-c3ccc(C(C)N(C)C)cc3)cc3nccnc23)C1 (stereo partly shown) [Compound 271] |
| 178 | CN(C)CCc1ccc(-c2cc3nccnc3c(OC[C@@H]3CN(S(C)(=O)=O)CCO3)n2)cc1 [Compound 272] |
| 192 | C=C(C)c1ccc(-c2cc3nccnc3c(OC[C@@H]3CN(S(C)(=O)=O)CCO3)n2)cc1 [Compound 277, (S)-4-(methylsulfonyl)-2-(((7-(4-(prop-1-en-2-yl)phenyl)pyrido[3,4-b]pyrazin-5-yl)oxy)methyl)morpholine] |
| 113 | COC(C)c1ccc(-c2cc3nccnc3c(OC[C@@H]3CN(C(C)=O)CCO3)n2)cc1 (stereo partly shown) [Compound 280] |
